From the NIST ThermoML archive (doi:10.1016/j.fluid.2018.05.028)

Test: xn = mol fraction of the nth substance listed
Details: 101 kPa, Liquid; for viscosity: Concentric cylinders viscometry; for speed of sound: Single path-length method; for mass density: Vibrating tube method

CCCCCCCC/C=C\CCCCCCCC(=O)OCC [ethyl (Z)-9-octadeceneoate] + CCCO
Details	mass density [kg/m3]	speed of sound [m/s]	viscosity [mPa·s]
293.15 K, x2 = 0	868.91	1394.2	6.413
293.15 K, x2 = 0.1	867.29	1389.8	6.028
293.15 K, x2 = 0.2	865.42	1384.1	5.695
293.15 K, x2 = 0.3	863.2	1377.6	5.368
293.15 K, x2 = 0.4	860.5	1370	5.016
293.15 K, x2 = 0.5	857.13	1360.7	4.643
293.15 K, x2 = 0.6	852.82	1349.2	4.238
293.15 K, x2 = 0.7	846.96	1333.8	3.8
293.15 K, x2 = 0.8	838.72	1312.4	3.299
293.15 K, x2 = 0.9	826.05	1279	2.748
298.15 K, x2 = 0	865.27	1376.2	5.653
298.15 K, x2 = 0.1	863.62	1371.8	5.318
298.15 K, x2 = 0.2	861.71	1366.1	5.028
298.15 K, x2 = 0.3	859.46	1359.7	4.736
298.15 K, x2 = 0.4	856.73	1352	4.427
298.15 K, x2 = 0.5	853.33	1342.7	4.102
298.15 K, x2 = 0.6	848.98	1331.2	3.742
298.15 K, x2 = 0.7	843.08	1315.9	3.357
298.15 K, x2 = 0.8	834.8	1294.6	2.93
298.15 K, x2 = 0.9	822.08	1261.3	2.455
303.15 K, x2 = 0	861.63	1358.4	4.986
303.15 K, x2 = 0.1	859.95	1353.9	4.693
303.15 K, x2 = 0.2	858.01	1348.3	4.435
303.15 K, x2 = 0.3	855.72	1341.8	4.183
303.15 K, x2 = 0.4	852.96	1334.2	3.915
303.15 K, x2 = 0.5	849.52	1324.8	3.629
303.15 K, x2 = 0.6	845.14	1313.4	3.312
303.15 K, x2 = 0.7	839.19	1298.1	2.98
303.15 K, x2 = 0.8	830.87	1276.9	2.603
303.15 K, x2 = 0.9	818.09	1243.8	2.186
308.15 K, x2 = 0	858.01	1340.8	4.424
308.15 K, x2 = 0.1	856.28	1336.3	4.167
308.15 K, x2 = 0.2	854.3	1330.6	3.94
308.15 K, x2 = 0.3	851.98	1324.2	3.719
308.15 K, x2 = 0.4	849.18	1316.5	3.482
308.15 K, x2 = 0.5	845.71	1307.2	3.23
308.15 K, x2 = 0.6	841.28	1295.7	2.956
308.15 K, x2 = 0.7	835.29	1280.4	2.657
308.15 K, x2 = 0.8	826.92	1259.4	2.324
308.15 K, x2 = 0.9	814.08	1226.5	1.955
313.15 K, x2 = 0	854.39	1323.3	3.919
313.15 K, x2 = 0.1	852.62	1318.8	3.697
313.15 K, x2 = 0.2	850.61	1313.1	3.497
313.15 K, x2 = 0.3	848.24	1306.6	3.305
313.15 K, x2 = 0.4	845.4	1299	3.1
313.15 K, x2 = 0.5	841.89	1289.6	2.882
313.15 K, x2 = 0.6	837.41	1278.2	2.645
313.15 K, x2 = 0.7	831.37	1262.9	2.384
313.15 K, x2 = 0.8	822.94	1241.9	2.09
313.15 K, x2 = 0.9	810.04	1209.2	1.76
318.15 K, x2 = 0	850.78	1306	3.554
318.15 K, x2 = 0.1	848.97	1301.4	3.354
318.15 K, x2 = 0.2	846.91	1295.7	3.171
318.15 K, x2 = 0.3	844.5	1289.2	2.996
318.15 K, x2 = 0.4	841.62	1281.6	2.808
318.15 K, x2 = 0.5	838.06	1272.1	2.606
318.15 K, x2 = 0.6	833.53	1260.7	2.388
318.15 K, x2 = 0.7	827.44	1245.5	2.147
318.15 K, x2 = 0.8	818.94	1224.5	1.882
318.15 K, x2 = 0.9	805.97	1191.9	1.584
323.15 K, x2 = 0	847.17	1288.9	3.214
323.15 K, x2 = 0.1	845.32	1284.2	3.036
323.15 K, x2 = 0.2	843.22	1278.4	2.871
323.15 K, x2 = 0.3	840.76	1272	2.712
323.15 K, x2 = 0.4	837.83	1264.2	2.542
323.15 K, x2 = 0.5	834.21	1254.8	2.36
323.15 K, x2 = 0.6	829.63	1243.3	2.163
323.15 K, x2 = 0.7	823.48	1228.1	1.945
323.15 K, x2 = 0.8	814.91	1207.2	1.704
323.15 K, x2 = 0.9	801.87	1174.8	1.433
328.15 K, x2 = 0	843.58	1271.9	2.921
328.15 K, x2 = 0.1	841.67	1267.1	2.762
328.15 K, x2 = 0.2	839.52	1261.3	2.612
328.15 K, x2 = 0.3	837.01	1254.8	2.467
328.15 K, x2 = 0.4	834.04	1247.1	2.312
328.15 K, x2 = 0.5	830.37	1237.6	2.146
328.15 K, x2 = 0.6	825.72	1226.1	1.969
328.15 K, x2 = 0.7	819.5	1210.8	1.768
328.15 K, x2 = 0.8	810.86	1190	1.55
328.15 K, x2 = 0.9	797.72	1157.7	1.301
333.15 K, x2 = 0	839.98	1255.2	2.643
333.15 K, x2 = 0.1	838.03	1250.2	2.502
333.15 K, x2 = 0.2	835.83	1244.3	2.366
333.15 K, x2 = 0.3	833.26	1237.8	2.236
333.15 K, x2 = 0.4	830.24	1230	2.098
333.15 K, x2 = 0.5	826.5	1220.5	1.948
333.15 K, x2 = 0.6	821.79	1208.9	1.792
333.15 K, x2 = 0.7	815.49	1193.6	1.611
333.15 K, x2 = 0.8	806.76	1172.8	1.413
333.15 K, x2 = 0.9	793.52	1140.6	1.185
338.15 K, x2 = 0	836.39	1238.6	2.448
338.15 K, x2 = 0.1	834.39	1233.4	2.317
338.15 K, x2 = 0.2	832.14	1227.5	2.191
338.15 K, x2 = 0.3	829.51	1220.9	2.069
338.15 K, x2 = 0.4	826.42	1213	1.938
338.15 K, x2 = 0.5	822.62	1203.5	1.796
338.15 K, x2 = 0.6	817.84	1191.8	1.649
338.15 K, x2 = 0.7	811.45	1176.5	1.477
338.15 K, x2 = 0.8	802.63	1155.6	1.294
338.15 K, x2 = 0.9	789.27	1123.5	1.08
343.15 K, x2 = 0	832.81	1222.5	2.254
343.15 K, x2 = 0.1	830.76	1216.9	2.135
343.15 K, x2 = 0.2	828.45	1210.9	2.018
343.15 K, x2 = 0.3	825.76	1204.2	1.905
343.15 K, x2 = 0.4	822.6	1196.2	1.784
343.15 K, x2 = 0.5	818.73	1186.6	1.65
343.15 K, x2 = 0.6	813.87	1174.9	1.515
343.15 K, x2 = 0.7	807.39	1159.5	1.354
343.15 K, x2 = 0.8	798.46	1138.5	1.185
343.15 K, x2 = 0.9	784.97	1106.3	0.9873
